“And” between values parts separate entries of the source, which are not always exact repeats. Equal entries are not always repeated. Toxic doses and inconclusive results are not listed. No stated cut-off is given here; in the data, active means T/C of 150% or more; inactive means T/C below 125%.
Tested on: L1210 leukemia ip in BDF1 mice, survival T/C
Test: NCI In Vivo Anticancer Drug Screen. Data for tumor model L1210 Leukemia (intraperitoneal) in B6D2F1 (BDF1) mice
Details: endpoint: mean survival time, higher = longer survival
Summary of the method: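 Antitumor effect is assessed in tumor-bearing animals. Survival in the compound arm is compared with a vehicle-dosed control arm and expressed as their quotient.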

[1] = dose: 100.0 mg/kg/injection, schedule: Q04DX002 (ip), vehicle: Klucel (hydroxypropylcellulose) (HPC)
[2] = dose: 200.0 mg/kg/injection, schedule: Q04DX002 (ip), vehicle: Klucel (hydroxypropylcellulose) (HPC)
[3] = dose: 100.0 mg/kg/injection, schedule: Q01DX009 (ip), vehicle: saline with Tween-80
[4] = dose: 100.0 mg/kg/injection, schedule: Q04DX003 (ip), vehicle: saline with Tween-80
[5] = dose: 200.0 mg/kg/injection, schedule: Q01DX009 (ip), vehicle: saline with Tween-80
[6] = dose: 200.0 mg/kg/injection, schedule: Q04DX003 (ip), vehicle: saline with Tween-80
[7] = dose: 400.0 mg/kg/injection, schedule: Q01DX009 (ip), vehicle: saline with Tween-80
[8] = dose: 100.0 mg/kg/injection, schedule: Q04DX003 (ip), vehicle: Klucel (hydroxypropylcellulose) (HPC)
[9] = dose: 200.0 mg/kg/injection, schedule: Q04DX003 (ip), vehicle: Klucel (hydroxypropylcellulose) (HPC)

Measured: T/C

CCOC(=O)C(Cc1c[nH]c2ccccc12)NC(C)=O (stereo not drawn)
inactive: [1] 106 % of control | [2] 100 % of control | dose: 400.0 mg/kg/injection, schedule: Q04DX002 (ip), vehicle: Klucel (hydroxypropylcellulose) (HPC) 95 % of control

CCCC(C)(O)C#CC(C)(O)CCC (stereo not drawn)
inactive: dose: 50.0 mg/kg/injection, schedule: Q01DX009 (ip), vehicle: saline with Tween-80 97 % of control | [3] 95 % of control | [4] 100 % of control | [5] 97 % of control | [6] 95 % of control

COC1C(OC(C)=O)CC(=O)OC(C)C/C=C/C=C\C(O)C(C)CC(CC=O)C1OC1OC(C)C(OC2CC(C)(O)C(OC(=O)CC(C)C)C(C)O2)C(N(C)C)C1O (stereo not drawn)
inactive: dose: 100.0 mg/kg/injection, schedule: Q01DX001 (ip), vehicle: saline 96 % of control | dose: 400.0 mg/kg/injection, schedule: Q01DX001 (ip), vehicle: saline 90 % of control

CCCCC(C=O)(C=C=C(C)C)CC (stereo not drawn)
inactive: [3] 89 % of control | [4] 92 % of control | [5] 91 % of control | [6] 93 % of control | [7] 89 % of control | dose: 400.0 mg/kg/injection, schedule: Q04DX003 (ip), vehicle: saline with Tween-80 98 % of control

CC(C)=CC(=O)O
inactive: [3] 95 % of control | [5] 98 % of control | [7] 104 % of control

Nc1nc(-c2ccccc2N=NN2CCCCC2)nc2ccccc12
inactive: dose: 50.0 mg/kg/injection, schedule: Q01DX009 (ip), vehicle: Klucel (hydroxypropylcellulose) (HPC) 107 % of control | dose: 100.0 mg/kg/injection, schedule: Q01DX009 (ip), vehicle: Klucel (hydroxypropylcellulose) (HPC) 118 % of control | [8] 109 % of control | dose: 200.0 mg/kg/injection, schedule: Q01DX009 (ip), vehicle: Klucel (hydroxypropylcellulose) (HPC) 107 % of control | [9] 104 % of control

CC(CSc1ccccc1)NCCO (stereo not drawn)
inactive: [4] 97 % of control

CC(C)CN=C(N)N=C(N)N
inactive: dose: 50.0 mg/kg/injection, schedule: Q01DX009 (ip), vehicle: water 95 % of control | dose: 50.0 mg/kg/injection, schedule: Q04DX003 (ip), vehicle: water 102 % of control | dose: 100.0 mg/kg/injection, schedule: Q01DX001 (ip), vehicle: water 96 % of control | dose: 100.0 mg/kg/injection, schedule: Q01DX009 (ip), vehicle: water 97 % of control | dose: 100.0 mg/kg/injection, schedule: Q04DX003 (ip), vehicle: water 104 % of control | dose: 200.0 mg/kg/injection, schedule: Q01DX001 (ip), vehicle: water 103 % of control | dose: 200.0 mg/kg/injection, schedule: Q04DX003 (ip), vehicle: water 107 % of control

CC(C)NNC(=O)C(C)N (stereo not drawn)
inactive: dose: 12.5 mg/kg/injection, schedule: Q01DX009 (ip), vehicle: saline 87 % of control | dose: 25.0 mg/kg/injection, schedule: Q01DX009 (ip), vehicle: saline 90 % of control | dose: 25.0 mg/kg/injection, schedule: Q04DX003 (ip), vehicle: saline 89 % of control | dose: 50.0 mg/kg/injection, schedule: Q01DX009 (ip), vehicle: saline 92 % of control | dose: 50.0 mg/kg/injection, schedule: Q04DX003 (ip), vehicle: saline 103 % of control | dose: 100.0 mg/kg/injection, schedule: Q01DX009 (ip), vehicle: saline 92 % of control | dose: 100.0 mg/kg/injection, schedule: Q04DX003 (ip), vehicle: saline 89 % of control | dose: 200.0 mg/kg/injection, schedule: Q01DX009 (ip), vehicle: saline 93 % of control | dose: 200.0 mg/kg/injection, schedule: Q04DX003 (ip), vehicle: saline 86 % of control

O=C1NC(=O)C2C3CCC(C12)C3C(c1ccccc1)c1ccccc1 (stereo not drawn)
inactive: dose: 100.0 mg/kg/injection, schedule: Q01DX001 (ip), vehicle: carboxymethylcellulose (CMC) 106 % of control | dose: 200.0 mg/kg/injection, schedule: Q01DX001 (ip), vehicle: carboxymethylcellulose (CMC) 95 % of control | dose: 400.0 mg/kg/injection, schedule: Q01DX001 (ip), vehicle: carboxymethylcellulose (CMC) 103 % of control

CCC(C)(C)c1ccc(OCCCCCCN2CCN(c3ccc(C)c(Cl)c3)CC2)cc1
inactive: dose: 75.0 mg/kg/injection, schedule: Q01DX001 (ip), vehicle: saline 102 % of control | dose: 150.0 mg/kg/injection, schedule: Q01DX001 (ip), vehicle: saline 110 % of control

NC(=O)C(N)CCCN=C(N)N (stereo not drawn)
inactive: dose: 37.5 mg/kg/injection, schedule: Q01DX001 (ip), vehicle: Klucel (hydroxypropylcellulose) (HPC) 103 % of control | dose: 75.0 mg/kg/injection, schedule: Q01DX001 (ip), vehicle: Klucel (hydroxypropylcellulose) (HPC) 116 % of control | dose: 150.0 mg/kg/injection, schedule: Q01DX001 (ip), vehicle: Klucel (hydroxypropylcellulose) (HPC) 100 % of control

CCCCCCCCC(=O)NCc1ccc(O)c(OC)c1
inactive: dose: 1.56 mg/kg/injection, schedule: Q01DX009 (ip), vehicle: saline 93 % of control | dose: 3.12 mg/kg/injection, schedule: Q01DX009 (ip), vehicle: saline 101 % of control | dose: 6.25 mg/kg/injection, schedule: Q01DX009 (ip), vehicle: saline 90 % of control

Nc1cccc(C(=O)CC(=O)Nc2nccs2)c1
inactive: dose: 50.0 mg/kg/injection, schedule: Q04DX003 (ip), vehicle: Klucel (hydroxypropylcellulose) (HPC) 90 % of control | dose: 100.0 mg/kg/injection, schedule: Q01DX001 (ip), vehicle: Klucel (hydroxypropylcellulose) (HPC) 98 % of control | [8] 95 % of control | dose: 200.0 mg/kg/injection, schedule: Q01DX001 (ip), vehicle: Klucel (hydroxypropylcellulose) (HPC) 103 % of control | [9] 90 % of control | dose: 400.0 mg/kg/injection, schedule: Q01DX001 (ip), vehicle: Klucel (hydroxypropylcellulose) (HPC) 98 % of control

CCCCCCC(=O)N1CC(C)OC(C)C1 (stereo not drawn)
inactive: [1] 96 % of control | [2] 96 % of control

CCc1ccc(N=C/C=C/c2ccccc2)cc1
inactive: dose: 25.0 mg/kg/injection, schedule: Q01DX009 (ip), vehicle: other 98 % of control | dose: 50.0 mg/kg/injection, schedule: Q01DX009 (ip), vehicle: other 98 % of control | dose: 100.0 mg/kg/injection, schedule: Q01DX009 (ip), vehicle: other 98 % of control and 110 % of control

— PubChem BioAssay AID248 (DTP/NCI, 2004)
